ChEMBL document CHEMBL4811260, “Isolation, synthesis and absolute configuration of 4,5-dihydroxypiperines improving behavioral disorder in AlCl3-induced dementia” (2021)
The source made the active and inactive calls. No cut-off for these calls is given here.

Key:
Danio rerio [1] = species: Danio rerio; assay: Antialzheimer activity against AlCl3-induced dementia zebrafish model assessed as increase in dyskinesia recovery rate at 10 uM measured for 60 mins under alternating light and dark environment in presence of 150 uM of AlCl3 relative to control; assay type: functional
Danio rerio [2] = species: Danio rerio; assay: Antialzheimer activity against AlCl3-induced dementia zebrafish model assessed as increase in zebrafish movement speed at 10 uM measured for 60 mins under alternating light and dark environment in presence of 150 uM of AlCl3; assay type: functional, organism-based
Danio rerio [3] = species: Danio rerio; assay: Antialzheimer activity against AlCl3-induced dementia zebrafish model assessed as increase in response efficiency at 10 uM measured for 60 mins under alternating light and dark environment in presence of 150 uM of AlCl3 relative to control; assay type: functional
Danio rerio [4] = species: Danio rerio; assay: Antialzheimer activity against AlCl3-induced dementia zebrafish model assessed as increase in zebrafish movement speed change at 10 uM measured for 60 mins under alternating light and dark environment in presence of 150 uM of AlCl3; assay type: functional, organism-based

SMILES	Activity (Danio rerio [1]; 1 h) [%]	Activity (Danio rerio [2])	Activity (Danio rerio [3]; 1 h) [%]	Activity (Danio rerio [4])	Activity (Danio rerio [1])	Activity (Danio rerio [3])
O=C(/C=C/[C@@H](O)[C@@H](O)c1ccc2c(c1)OCO2)N1CCCCC1	73.8	Active	85.4	Active	–	–
O=C(/C=C/[C@@H](O)[C@H](O)c1ccc2c(c1)OCO2)N1CCCCC1	–	–	–	–	inactive	inactive
O=C(/C=C/[C@H](O)[C@@H](O)c1ccc2c(c1)OCO2)N1CCCCC1	–	–	–	–	inactive	inactive
O=C(/C=C/[C@H](O)[C@H](O)c1ccc2c(c1)OCO2)N1CCCCC1	–	–	–	–	inactive	inactive
